Experimental findings from PMC11309911 (British journal of pharmacology, 2024) are described below.

This assay concerns the target Cav2.1 calcium channel α1 subunit (P/Q-type hCav2.1) (Homo sapiens, UniProt O00555). Briefly: whole-cell patch clamp of ICa in transfected HEK293-F cells. In kind it is cell-based. (Patch clamp records ionic current or voltage across a cell membrane.)

Molecules are shown by their SMILES.

Sequence of Cav2.1 calcium channel α1 subunit (P/Q-type hCav2.1) (O00555 whole entry): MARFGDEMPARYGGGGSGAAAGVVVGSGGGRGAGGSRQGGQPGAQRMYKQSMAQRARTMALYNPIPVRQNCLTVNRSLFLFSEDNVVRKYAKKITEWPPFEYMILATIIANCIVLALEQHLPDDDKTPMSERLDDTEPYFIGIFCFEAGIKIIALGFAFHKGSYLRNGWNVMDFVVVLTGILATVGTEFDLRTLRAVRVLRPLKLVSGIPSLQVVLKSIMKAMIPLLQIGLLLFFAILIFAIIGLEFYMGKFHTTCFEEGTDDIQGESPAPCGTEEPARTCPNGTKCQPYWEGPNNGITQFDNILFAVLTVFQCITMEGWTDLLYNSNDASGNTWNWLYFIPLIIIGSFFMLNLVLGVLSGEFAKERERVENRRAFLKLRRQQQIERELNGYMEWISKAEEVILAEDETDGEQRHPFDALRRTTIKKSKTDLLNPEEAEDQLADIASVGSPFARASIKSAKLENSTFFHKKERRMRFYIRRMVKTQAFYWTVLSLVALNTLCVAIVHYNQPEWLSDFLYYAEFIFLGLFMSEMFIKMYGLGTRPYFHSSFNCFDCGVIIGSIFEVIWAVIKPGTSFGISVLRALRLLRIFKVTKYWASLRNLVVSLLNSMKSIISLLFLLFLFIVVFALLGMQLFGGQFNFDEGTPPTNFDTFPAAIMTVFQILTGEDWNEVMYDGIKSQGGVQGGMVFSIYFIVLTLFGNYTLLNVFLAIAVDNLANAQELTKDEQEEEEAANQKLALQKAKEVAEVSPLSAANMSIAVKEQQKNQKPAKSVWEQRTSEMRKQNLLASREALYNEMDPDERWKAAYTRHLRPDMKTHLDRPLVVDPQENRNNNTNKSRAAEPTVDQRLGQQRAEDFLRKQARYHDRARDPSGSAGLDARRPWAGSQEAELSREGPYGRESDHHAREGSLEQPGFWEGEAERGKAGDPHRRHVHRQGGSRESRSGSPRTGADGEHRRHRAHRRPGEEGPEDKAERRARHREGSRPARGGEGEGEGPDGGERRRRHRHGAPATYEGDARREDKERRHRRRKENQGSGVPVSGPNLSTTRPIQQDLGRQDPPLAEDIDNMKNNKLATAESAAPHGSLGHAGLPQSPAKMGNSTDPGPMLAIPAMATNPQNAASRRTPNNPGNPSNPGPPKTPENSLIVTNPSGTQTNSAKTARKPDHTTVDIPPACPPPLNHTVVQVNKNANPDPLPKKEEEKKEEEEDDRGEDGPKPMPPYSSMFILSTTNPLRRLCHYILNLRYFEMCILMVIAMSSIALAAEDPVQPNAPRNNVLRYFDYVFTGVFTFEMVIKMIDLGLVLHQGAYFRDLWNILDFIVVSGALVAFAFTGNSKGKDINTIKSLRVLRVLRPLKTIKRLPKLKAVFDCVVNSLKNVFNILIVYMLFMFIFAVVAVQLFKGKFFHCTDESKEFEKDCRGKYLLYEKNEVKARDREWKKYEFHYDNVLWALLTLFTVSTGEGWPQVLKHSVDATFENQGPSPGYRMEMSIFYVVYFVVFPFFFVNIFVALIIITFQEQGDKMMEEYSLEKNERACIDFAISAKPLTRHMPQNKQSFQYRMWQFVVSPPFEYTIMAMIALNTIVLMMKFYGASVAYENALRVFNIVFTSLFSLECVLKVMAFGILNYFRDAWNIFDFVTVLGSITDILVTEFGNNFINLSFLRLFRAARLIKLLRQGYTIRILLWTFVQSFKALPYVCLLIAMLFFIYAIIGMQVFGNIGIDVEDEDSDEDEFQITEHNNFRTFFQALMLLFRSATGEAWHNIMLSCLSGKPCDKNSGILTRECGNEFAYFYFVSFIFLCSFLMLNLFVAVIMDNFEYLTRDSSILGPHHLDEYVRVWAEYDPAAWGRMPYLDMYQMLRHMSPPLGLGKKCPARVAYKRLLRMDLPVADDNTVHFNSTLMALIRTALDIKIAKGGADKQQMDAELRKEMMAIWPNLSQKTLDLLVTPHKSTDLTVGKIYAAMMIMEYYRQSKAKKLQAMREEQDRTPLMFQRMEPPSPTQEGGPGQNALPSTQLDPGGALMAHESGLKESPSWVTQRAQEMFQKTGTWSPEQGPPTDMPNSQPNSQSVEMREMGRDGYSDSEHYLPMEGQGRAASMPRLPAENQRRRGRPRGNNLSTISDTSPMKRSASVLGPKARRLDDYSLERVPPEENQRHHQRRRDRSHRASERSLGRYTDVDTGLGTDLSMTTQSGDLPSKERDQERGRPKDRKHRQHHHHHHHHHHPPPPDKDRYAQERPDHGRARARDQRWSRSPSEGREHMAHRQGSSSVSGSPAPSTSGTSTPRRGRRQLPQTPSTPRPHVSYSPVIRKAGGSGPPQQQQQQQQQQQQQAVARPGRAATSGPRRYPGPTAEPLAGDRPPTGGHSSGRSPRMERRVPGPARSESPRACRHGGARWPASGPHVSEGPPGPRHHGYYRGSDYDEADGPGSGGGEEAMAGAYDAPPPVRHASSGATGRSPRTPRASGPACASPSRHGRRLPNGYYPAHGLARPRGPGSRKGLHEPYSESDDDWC

Regarding `N.N.N.N.N.N.N.N.[Cl][Ru+3].[NH]=[Ru][Cl]` [Ru265], the half-maximal inhibitory concentration (IC50) – broadly, the midpoint of a concentration-inhibition curve – is about 2500 nM.
